One test deals with Histamine H3 receptor (Homo sapiens, UniProt Q9Y5N1). As to the kind of experiment: Inhibition of human histamine H3 receptor.
The target of test [1] is T1, Acetylcholinesterase (Homo sapiens, UniProt P22303). Put plainly: Inhibition of human AChE.
Test [2] has as its target Cholinesterase (Equus caballus, UniProt P81908). Put plainly: Inhibition of equine BChE.
Test [3] concerns the target Transient receptor potential cation channel subfamily V member 1 (Homo sapiens, UniProt Q8NER1). As to the kind of experiment: Inhibition of TRPV1 (unknown origin).
The target in test [4] is Prostaglandin G/H synthase 1 (Ovis aries, UniProt P05979). As to the kind of experiment: Inhibition of ovine COX1.
Test [5] concerns the target Prostaglandin G/H synthase 2 (Ovis aries, UniProt P79208). As to the kind of experiment: Inhibition of ovine COX2.
Test [6] deals with T2, Cholinesterase (Homo sapiens, UniProt P06276). As to the kind of experiment: Inhibition of human BChE.
Test [7] has as its target Amyloid-beta precursor protein (Homo sapiens) (UniProt P05067). Put plainly: Inhibition of amyloid beta (1 to 42 residues) (unknown origin) self aggregation at 10 uM ThT-based fluorescence assay relative to control.
For test [8], the target named is Neuronal acetylcholine receptor subunit alpha-7 (Homo sapiens, UniProt P36544). Put plainly: Inhibition of alpha7 nAChR (unknown origin).
Test [9] has as its target Neuronal acetylcholine receptor; alpha4/beta2 (Homo sapiens, UniProt P17787+P43681). As to the kind of experiment: Inhibition of alpha4beta2 nAChR (unknown origin). The format is protein-complex assay.
The target of test [10] is Prostaglandin G/H synthase 1 (Homo sapiens, UniProt P23219). Put plainly: Inhibition of COX1 in human platelets after 30 mins by mass spectrometry analysis.
Test [11] has as its target Prostaglandin G/H synthase 2 (Homo sapiens, UniProt P35354). Put plainly: Inhibition of COX2 in lympho-monocytes (unknown origin) preincubated for 30 mins followed by LPS challenged measured after 24 hrs by EIA. The test is classed as cell-based.
In test [12] the target is Thromboxane A2 receptor (Homo sapiens) (UniProt P21731). As to the kind of experiment: Antagonist activity at TP receptor in human washed platelet assessed as U46619 induced platelet aggregation after 6 mins. Details: scale not given: the % may be the effect or the level left.
The target of test [13] is 5-hydroxytryptamine receptor 1A (Mus musculus, UniProt Q64264). As to the kind of experiment: Agonist activity at mouse 5-HT1A expressed in HEK293 cells after 2 to 5 mins. The format is cell-based.
In test [14] the target is Acetylcholinesterase (Rattus norvegicus, UniProt P37136). Put plainly: Inhibition of rat AChE.
Another test has as its target Butyrylcholinesterase (Rattus norvegicus, UniProt Q9JKC1). As to the kind of experiment: Inhibition of rat BChE.
Test [15] concerns the target Sodium-dependent serotonin transporter (Homo sapiens, UniProt P31645). Put plainly: Inhibition of 5HTT (unknown origin).
The next test addresses Beta-secretase 1 (Homo sapiens, UniProt P56817). As to the kind of experiment: Inhibition of BACE1 (unknown origin) using EVNLDAEF as substrate by fluorescence assay.
Test [16] can be described thus: Inhibition of nAChR (unknown origin) after 1 to 2 mins. Details: species or system Homo sapiens.
For test [17], the target named is Muscarinic acetylcholine receptor M1 (Homo sapiens, UniProt P11229). As to the kind of experiment: Inhibition of M1R (unknown origin).
Test [18] has as its target Amine oxidase [flavin-containing] A (Homo sapiens, UniProt P21397). As to the kind of experiment: Inhibition of human MAOA.
Test [19] concerns the target 5-hydroxytryptamine receptor 6 (Homo sapiens, UniProt P50406). Put plainly: Displacement of [3H]-LSD from recombinant human 5HT6 receptor expressed in CHOK1 cells measured after 60 mins by microbeta scintillation counting method. The test is classed as cell-based. On the technique in general: Displacement assays read how much labelled ligand stays bound in the presence of the test substance.

Test [20] deals with T2, Cholinesterase. As to the kind of experiment: Inhibition of recombinant human BChE using butyrylthiocholine iodide as substrate preincubated for 5 mins followed by substrate addition measured after 5 mins.
Test [21] concerns the target Amine oxidase [flavin-containing] B (Homo sapiens, UniProt P27338). Put plainly: Inhibition of human MAOB.
Test [22] deals with T1, Acetylcholinesterase. Put plainly: Inhibition of recombinant human AChE using acetylthiocholine iodide as substrate preincubated for 5 mins followed by substrate addition measured after 5 mins.

T2 sequence (P06276 whole entry, the tested form may be a part): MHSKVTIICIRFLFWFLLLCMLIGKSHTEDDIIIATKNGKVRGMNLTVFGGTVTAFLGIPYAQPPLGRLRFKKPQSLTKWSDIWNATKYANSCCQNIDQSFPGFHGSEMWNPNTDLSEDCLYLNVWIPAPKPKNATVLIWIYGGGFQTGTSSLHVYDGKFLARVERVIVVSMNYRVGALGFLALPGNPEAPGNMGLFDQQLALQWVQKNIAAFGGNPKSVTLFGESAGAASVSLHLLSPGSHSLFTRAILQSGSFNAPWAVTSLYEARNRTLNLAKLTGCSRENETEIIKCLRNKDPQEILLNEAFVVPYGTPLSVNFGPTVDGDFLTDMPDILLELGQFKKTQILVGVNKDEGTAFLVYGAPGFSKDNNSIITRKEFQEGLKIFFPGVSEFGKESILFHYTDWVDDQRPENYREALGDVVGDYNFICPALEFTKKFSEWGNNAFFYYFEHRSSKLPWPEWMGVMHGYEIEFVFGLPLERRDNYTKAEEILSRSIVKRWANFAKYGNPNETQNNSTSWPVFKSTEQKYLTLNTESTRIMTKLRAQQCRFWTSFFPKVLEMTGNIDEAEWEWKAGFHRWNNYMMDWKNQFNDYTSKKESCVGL
T1 sequence (P22303 whole entry): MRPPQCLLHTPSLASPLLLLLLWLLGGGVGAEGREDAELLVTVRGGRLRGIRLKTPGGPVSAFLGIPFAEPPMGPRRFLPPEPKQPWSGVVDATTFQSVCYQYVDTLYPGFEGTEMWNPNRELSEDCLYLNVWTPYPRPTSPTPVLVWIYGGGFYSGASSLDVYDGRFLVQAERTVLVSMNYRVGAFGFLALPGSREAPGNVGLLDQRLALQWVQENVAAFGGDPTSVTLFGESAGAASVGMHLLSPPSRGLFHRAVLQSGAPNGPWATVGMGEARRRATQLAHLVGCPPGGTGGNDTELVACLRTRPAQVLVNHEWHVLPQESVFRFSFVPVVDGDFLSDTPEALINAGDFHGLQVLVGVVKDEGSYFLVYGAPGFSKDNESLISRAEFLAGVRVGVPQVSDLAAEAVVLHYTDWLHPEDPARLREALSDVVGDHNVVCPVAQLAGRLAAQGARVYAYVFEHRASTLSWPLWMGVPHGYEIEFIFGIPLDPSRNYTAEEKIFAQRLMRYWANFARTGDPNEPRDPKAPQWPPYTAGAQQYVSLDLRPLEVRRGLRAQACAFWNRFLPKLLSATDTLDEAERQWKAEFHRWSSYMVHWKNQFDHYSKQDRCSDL
Chain of Thromboxane A2 receptor (Homo sapiens) (P21731 whole entry): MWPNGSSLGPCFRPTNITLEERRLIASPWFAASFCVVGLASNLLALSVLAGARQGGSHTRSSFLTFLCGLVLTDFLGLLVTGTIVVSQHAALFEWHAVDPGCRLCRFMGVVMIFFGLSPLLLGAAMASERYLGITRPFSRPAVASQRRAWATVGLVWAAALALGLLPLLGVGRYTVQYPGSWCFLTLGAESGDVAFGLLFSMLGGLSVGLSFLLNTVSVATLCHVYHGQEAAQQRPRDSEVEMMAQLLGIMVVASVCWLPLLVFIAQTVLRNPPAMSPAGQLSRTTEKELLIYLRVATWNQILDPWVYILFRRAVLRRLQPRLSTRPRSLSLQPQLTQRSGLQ
Chain of Amyloid-beta precursor protein (Homo sapiens) (P05067 whole entry, the tested form may be a part): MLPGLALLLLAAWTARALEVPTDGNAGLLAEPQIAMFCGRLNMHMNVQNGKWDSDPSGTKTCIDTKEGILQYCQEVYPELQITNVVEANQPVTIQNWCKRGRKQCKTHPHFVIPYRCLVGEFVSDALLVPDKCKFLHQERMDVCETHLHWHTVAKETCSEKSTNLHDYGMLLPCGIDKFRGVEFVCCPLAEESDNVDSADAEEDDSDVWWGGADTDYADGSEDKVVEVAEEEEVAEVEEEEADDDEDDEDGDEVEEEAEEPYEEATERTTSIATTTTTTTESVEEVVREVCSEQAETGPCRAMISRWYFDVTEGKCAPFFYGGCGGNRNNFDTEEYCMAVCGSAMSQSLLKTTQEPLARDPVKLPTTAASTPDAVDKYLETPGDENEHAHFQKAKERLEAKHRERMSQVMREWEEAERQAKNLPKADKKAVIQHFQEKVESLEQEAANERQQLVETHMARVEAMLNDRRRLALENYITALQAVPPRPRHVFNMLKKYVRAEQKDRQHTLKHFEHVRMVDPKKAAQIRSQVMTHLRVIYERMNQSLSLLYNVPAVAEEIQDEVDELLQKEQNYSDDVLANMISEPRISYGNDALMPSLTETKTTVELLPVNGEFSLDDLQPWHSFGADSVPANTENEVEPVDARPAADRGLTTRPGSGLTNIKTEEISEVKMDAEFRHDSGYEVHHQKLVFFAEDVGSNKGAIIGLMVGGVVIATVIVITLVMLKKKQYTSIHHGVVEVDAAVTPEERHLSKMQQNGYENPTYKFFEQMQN
Chain of Prostaglandin G/H synthase 1 (Homo sapiens, UniProt P23219) (P23219 whole entry): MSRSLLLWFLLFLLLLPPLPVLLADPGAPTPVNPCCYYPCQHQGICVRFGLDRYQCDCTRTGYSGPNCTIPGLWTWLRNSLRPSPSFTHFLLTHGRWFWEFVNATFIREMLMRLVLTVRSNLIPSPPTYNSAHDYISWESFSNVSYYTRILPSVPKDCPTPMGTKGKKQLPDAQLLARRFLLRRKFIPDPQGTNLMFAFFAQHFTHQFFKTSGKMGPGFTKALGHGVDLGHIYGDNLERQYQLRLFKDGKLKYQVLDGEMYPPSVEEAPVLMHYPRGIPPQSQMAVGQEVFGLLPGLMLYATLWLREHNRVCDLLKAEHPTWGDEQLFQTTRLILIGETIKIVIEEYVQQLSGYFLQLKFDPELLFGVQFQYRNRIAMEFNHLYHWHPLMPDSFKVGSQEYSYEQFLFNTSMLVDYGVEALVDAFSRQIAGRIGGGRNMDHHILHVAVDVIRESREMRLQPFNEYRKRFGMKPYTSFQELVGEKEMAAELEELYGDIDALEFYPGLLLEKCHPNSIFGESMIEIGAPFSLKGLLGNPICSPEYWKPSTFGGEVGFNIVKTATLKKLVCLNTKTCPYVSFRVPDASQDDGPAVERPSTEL
Chain of Prostaglandin G/H synthase 2 (Homo sapiens, UniProt P35354) (P35354 whole entry): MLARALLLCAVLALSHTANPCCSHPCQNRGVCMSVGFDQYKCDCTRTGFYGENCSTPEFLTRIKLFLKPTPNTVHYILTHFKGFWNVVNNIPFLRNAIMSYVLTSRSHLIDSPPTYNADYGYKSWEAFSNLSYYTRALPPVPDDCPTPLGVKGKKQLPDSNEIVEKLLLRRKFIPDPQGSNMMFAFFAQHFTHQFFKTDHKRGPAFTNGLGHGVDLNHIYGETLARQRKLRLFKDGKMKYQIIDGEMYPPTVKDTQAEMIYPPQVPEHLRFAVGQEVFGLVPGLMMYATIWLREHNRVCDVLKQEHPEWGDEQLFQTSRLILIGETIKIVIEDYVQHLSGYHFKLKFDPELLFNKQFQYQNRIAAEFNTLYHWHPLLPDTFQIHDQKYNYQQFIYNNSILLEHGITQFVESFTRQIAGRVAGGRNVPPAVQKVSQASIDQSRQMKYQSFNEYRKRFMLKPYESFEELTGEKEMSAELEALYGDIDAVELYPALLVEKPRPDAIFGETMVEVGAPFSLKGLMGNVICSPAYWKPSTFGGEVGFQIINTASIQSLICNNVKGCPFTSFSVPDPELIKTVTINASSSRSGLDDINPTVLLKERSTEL
Chain of 5-hydroxytryptamine receptor 6 (P50406 whole entry): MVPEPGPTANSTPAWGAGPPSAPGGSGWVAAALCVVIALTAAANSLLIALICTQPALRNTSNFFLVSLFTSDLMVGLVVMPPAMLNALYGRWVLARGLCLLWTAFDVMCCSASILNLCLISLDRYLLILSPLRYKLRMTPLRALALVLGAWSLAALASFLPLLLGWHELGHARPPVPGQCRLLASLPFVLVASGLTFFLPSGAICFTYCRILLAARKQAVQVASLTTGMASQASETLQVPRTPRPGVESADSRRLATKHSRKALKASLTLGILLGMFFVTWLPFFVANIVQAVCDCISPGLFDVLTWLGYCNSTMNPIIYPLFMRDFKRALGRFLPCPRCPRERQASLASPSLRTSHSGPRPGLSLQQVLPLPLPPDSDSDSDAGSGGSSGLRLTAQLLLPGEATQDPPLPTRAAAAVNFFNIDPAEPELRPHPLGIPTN
Chain of Cholinesterase (Equus caballus, UniProt P81908) (P81908 whole entry): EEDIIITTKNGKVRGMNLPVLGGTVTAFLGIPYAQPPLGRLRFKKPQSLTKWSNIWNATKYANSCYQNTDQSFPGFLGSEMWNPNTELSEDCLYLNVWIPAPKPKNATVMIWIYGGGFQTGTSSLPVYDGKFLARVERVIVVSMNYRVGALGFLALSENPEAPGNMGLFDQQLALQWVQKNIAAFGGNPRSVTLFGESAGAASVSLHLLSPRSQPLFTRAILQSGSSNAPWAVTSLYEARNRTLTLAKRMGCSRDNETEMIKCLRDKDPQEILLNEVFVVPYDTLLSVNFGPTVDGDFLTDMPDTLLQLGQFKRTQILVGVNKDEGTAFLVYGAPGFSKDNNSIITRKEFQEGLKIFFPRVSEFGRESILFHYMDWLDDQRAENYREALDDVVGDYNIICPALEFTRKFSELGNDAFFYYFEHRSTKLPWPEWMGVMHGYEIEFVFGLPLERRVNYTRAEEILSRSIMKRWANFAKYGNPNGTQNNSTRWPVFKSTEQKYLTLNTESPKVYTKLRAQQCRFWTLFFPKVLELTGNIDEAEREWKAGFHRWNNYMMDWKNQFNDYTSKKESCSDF
Chain of Histamine H3 receptor (Q9Y5N1 whole entry): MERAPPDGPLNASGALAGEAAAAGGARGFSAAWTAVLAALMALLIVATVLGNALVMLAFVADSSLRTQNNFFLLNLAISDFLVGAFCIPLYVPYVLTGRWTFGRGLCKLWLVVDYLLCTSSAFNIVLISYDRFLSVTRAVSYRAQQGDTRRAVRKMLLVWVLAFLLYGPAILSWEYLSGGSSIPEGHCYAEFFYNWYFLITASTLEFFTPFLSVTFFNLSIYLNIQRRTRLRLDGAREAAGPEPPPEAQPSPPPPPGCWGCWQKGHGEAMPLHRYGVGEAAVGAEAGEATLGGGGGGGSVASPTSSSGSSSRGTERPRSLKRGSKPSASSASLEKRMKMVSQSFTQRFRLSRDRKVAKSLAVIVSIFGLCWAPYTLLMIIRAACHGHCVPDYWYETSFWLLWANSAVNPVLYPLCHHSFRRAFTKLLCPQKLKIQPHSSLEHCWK

Take `O=c1c2cc(OCCCN3CCCCC3)ccc2nc2n1CCC2`: on Histamine H3 receptor, the affinity corresponds to a Ki of 2500 nM. For the same compound, the IC50 (in general, the concentration that inhibits the measured activity by half) on Acetylcholinesterase [1] came to 5400 nM; at Cholinesterase [2], 248000 nM.

`CC[C@@H](/C=C/[C@@H](C)[C@H]1CC[C@H]2C3=CC[C@H]4C[C@@H](O)CC[C@]4(C)[C@H]3CC[C@]12C)C(C)C`: the IC50 in [3] amounted to 1400 nM; in test [4], 16200 nM; in test [5] it was 7800 nM.

Turning to `COc1ccccc1CN1CCN(CCCCCOc2cccc3[nH]c4ccccc4c23)CC1`, the figures for the IC50 on Acetylcholinesterase [1] and on Cholinesterase [6] were 2400 nM and 600 nM, respectively. Further, the inhibition (commonly the percentage by which the read-out fell short of the control) in [7] came out at 34%. Further, the Ki (in general, the dissociation constant of the complex between target and ligand, obtained from inhibition or displacement) in [8] was 66800 nM; in test [9], 35300 nM.

Consider `Cc1ccc(Nc2c(F)cccc2Cl)c(CNc2nnn[nH]2)c1`, for which the IC50 in test [10] was 13200 nM; in [11] it was 14 nM. Also, the Activity in [12] amounted to 5.6%.

With `N#Cc1ccc2[nH]cc(CCCCN3CCN(c4c5c(nc6ccccc46)CCCC5)CC3)c2c1`, a half-maximal response in test [13] (EC50) required 107 nM. Further, the 50% inhibitory concentration (IC50) was 76 nM on Acetylcholinesterase [14], 3300 nM against Butyrylcholinesterase and 15.8 nM in [15].

`COc1cc2c(cc1OC)-c1cc(OCCN3CCCCC3)nc(=O)n1CC2` registered an IC50 against Acetylcholinesterase [1] of 5000 nM.

In the case of `COc1ccc2nc3c(c(NCCCCCCCCNC(=S)NC45CC6CC(CC(C6)C4)C5)c2c1)CCCC3`, the IC50 at Beta-secretase 1 is 18400 nM; against Acetylcholinesterase [1], 1600 nM; against Cholinesterase [6], 300 nM; in test [16] it was 1100 nM; in [17] it was 2200 nM. For the same compound, in test [7], the inhibition stood at 77%.

Take `C#CCN(C)Cc1cc2cc(OCCCC3CCN(Cc4ccccc4)CC3)ccc2n1C`: the IC50 in [18] turned out to be 0.3 nM.

In the case of `CN(CCCN1CCN(c2cccc3c2ccn3Cc2ccccc2)CC1)Cc1ccccc1`, in test [19], the Ki is 240 nM. Moreover, on Cholinesterase [20], the 50% inhibitory concentration (IC50) worked out at 196 nM.

As for `Cc1ccc(Nc2c(F)cccc2Cl)c(CNS(=O)(=O)C(F)(F)F)c1`, the IC50 in [10] came to 16100 nM; in test [11], 400 nM. Also, the Activity in test [12] was 5.9%.

Regarding `O=C(c1ccc(OCCCc2cnc[nH]2)cc1)C1CC1` [CIPROXIFAN], the IC50 in test [21] is 1900 nM.

Turning to `Cc1c(OCc2ccccc2)cccc1N1CCN(CCCCCCNc2c3c(nc4c2CCCC4)CCCC3)CC1`, the Ki in [19] came to 18 nM. In addition, the IC50 on Acetylcholinesterase [22] worked out at 14 nM; on Cholinesterase [20], 22 nM.

These data come from ChEMBL document CHEMBL4334472, “Multi-target-directed-ligands acting as enzyme inhibitors and receptor ligands” (Eur J Med Chem, 2019).
